Experimental data from US9115159B2, “Phosphate compounds, a process for their preparation and pharmaceutical compositions containing them” (LES LABORATOIRES SERVIER, priority 2013, dated 2015).
Where two headings read alike, the source gives them in different places.

Assays:
caspase 3 = assay: Induction of caspase activity in vivo (DEVDase activity in tumour lysates, RS4;11 xenograft); design: species or system mice (SCID strain); settings: 100 mg/kg p.o., 16 hours after treatment, RS4;11 tumour lysates, treated mice / control mice
Description: The ability of the compounds of formula (I′) to activate caspase 3 is evaluated in a xenograft model of RS4;11 leukaemia cells.
1×10^7 RS4;11 cells are grafted sub-cutaneously into immunosuppressed mice (SCID strain). 25 to 30 days after the graft, the animals are treated orally with the various compounds. Sixteen hours after treatment, the tumour masses are recovered and lysed, and the caspase 3 activity is measured in the tumour lysates.
This enzymatic measurement is carried out by assaying the appearance of a fluorigenic cleavage product (DEVDase activity, Promega). It is expressed in the form of an activation factor corresponding to the ratio between the two caspase activities: the activity for the treated mice divided by the activity for the control mice.
N-(4-Hydroxyphenyl)-3-{6-[((3S)-3-(4-morpholinylmethyl)-3,4-dihydro-2(1H)-isoquinolinyl)carbonyl]-1,3-benzodioxol-5-yl}-N-phenyl-5,6,7,8-tetrahydro-1-indolizine carboxamide (also referred to as the drug from Example 1) was tested. At a dose of 100 mg/kg p.o., the in vivo caspase activation factor is 29.3.

[1] = Solubility in aqueous medium buffered to physiological pH (phosphate 0.33M, pH 7.4); assay type: physicochemical; settings: phosphate 0.33M, pH = 7.4
Description: The solubilities of the compounds were also measured in a medium buffered to physiological pH (cf. Table 3).

[2] = Pharmacokinetic profile / in vivo conversion after oral administration to SCID mice (plasma, LC-MS/MS); design: species or system female SCID mice; settings: female, mouse, po; for Cmax: read-out: Cmax, compound measured: Drug from Example 1; for AUC(0-t): read-out: AUCt, compound measured: Drug from Example 1; for Tmax: read-out: Tmax, compound measured: Drug from Example 1
Summary of the method: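 Female SCID mice were gavaged with phosphate prodrug in EtOH/PEG300/water (10/40/50) at 3 or 25 mg/kg, or in aqueous media (1 mM Na2CO3, water, or 1M Na2CO3) at 3–100 mg/kg. Plasma prodrug and hydroxylated drug were measured by TFC-LC-MS/MS over 0.25–24 h. Non-compartmental analysis used mean concentrations.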

[3] = Drug from Example 1 administered 3 mg/kg p.o., lipid formulation
[4] = Drug from Example 1 administered 25 mg/kg p.o., lipid formulation
[5] = Drug from Example 1 administered 30 mg/kg p.o., lipid formulation
[6] = Drug from Example 1 administered 100 mg/kg p.o., lipid formulation

Solubility at 10 μM ([1]; 10 μM): Insoluble | Solubility at 20 μM ([1]; 20 μM): Insoluble | Solubility at 50 μM ([1]; 50 μM): Insoluble | Solubility at 100 μM ([1]; 100 μM): Insoluble | Cmax ([2]; Drug from Example 1 administered 3 mg/kg p.o., lipid formulation (ethanol/PEG 300/water 10/40/50)): 295 ng/mL | AUC(0-t) [2, 3]: 225 ng·h/mL | Tmax [2, 3]: 15 min | AUC(0-t) [2, 4]: 20400 ng·h/mL | Cmax [2, 4]: 5070 ng/mL | Tmax [2, 4]: 120 min | AUC(0-t) [2, 5]: 24200 ng·h/mL | Cmax [2, 5]: 8580 ng/mL | Tmax [2, 5]: 60 min | AUC(0-t) [2, 6]: 148000 ng·h/mL | Cmax [2, 6]: 25900 ng/mL | Tmax [2, 6]: 30 min
Compound: O=C(c1cc(-c2cc3c(cc2C(=O)N2Cc4ccccc4C[C@H]2CN2CCOCC2)OCO3)n2c1CCCC2)N(c1ccccc1)c1ccc(O)cc1 [Drug from Example 1, N-(4-hydroxyphenyl)-3-{6-[((3S)-3-(4-morpholinylmethyl)-3,4-dihydro-2(1H)-isoquinolinyl)carbonyl]-1,3-benzodioxol-5-yl}-N-phenyl-5,6,7,8-tetrahydro-1-indolizine carboxamide]
in vivo caspase activation factor (caspase 3): 29.3
